# Biological target: T1, human FSH receptor (Homo sapiens, UniProt P23945)
# T1 construct: expressed in transfected cells; host or cells: CHO cells (hFSHR clone 16)
# T1 sequence (P23945 18-695): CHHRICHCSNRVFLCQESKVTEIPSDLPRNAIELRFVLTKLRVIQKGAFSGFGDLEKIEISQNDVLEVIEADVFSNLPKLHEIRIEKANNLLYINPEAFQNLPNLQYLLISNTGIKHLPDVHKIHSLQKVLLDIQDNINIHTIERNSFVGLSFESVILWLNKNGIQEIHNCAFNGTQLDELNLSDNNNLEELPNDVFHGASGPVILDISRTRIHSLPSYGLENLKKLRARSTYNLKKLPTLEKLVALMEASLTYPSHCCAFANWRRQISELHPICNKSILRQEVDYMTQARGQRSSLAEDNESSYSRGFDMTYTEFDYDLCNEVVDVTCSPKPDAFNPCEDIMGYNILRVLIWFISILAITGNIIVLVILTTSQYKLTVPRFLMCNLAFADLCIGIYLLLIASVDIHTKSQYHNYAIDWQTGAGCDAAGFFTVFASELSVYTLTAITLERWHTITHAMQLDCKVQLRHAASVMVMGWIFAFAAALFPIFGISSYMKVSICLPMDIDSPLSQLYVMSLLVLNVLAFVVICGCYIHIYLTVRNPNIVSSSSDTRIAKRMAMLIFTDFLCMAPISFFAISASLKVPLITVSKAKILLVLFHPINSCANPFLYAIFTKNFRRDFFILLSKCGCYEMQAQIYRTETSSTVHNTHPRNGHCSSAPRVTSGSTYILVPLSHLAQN
# Experiment: HTRF assay for measuring cAMP in cells (FSH-antagonistic effect)
# Format: cell-based
# Conditions: hFSHR clone 16 cells (CHO cells stably transfected with the human FSH receptor), in the presence of 1e-9 mol/l hFSH, 37° C. for 2 h
# Description: HTRF Assay for Measuring cAMP in Cells
# The method is based on a competitive immunoassay between native cAMP, which has been produced by the cells, and cAMP which is labelled with cAMPD2 conjugate. The tracer binding was visualized by a monoclonal antibody, anti-cAMP labelled with cryptate [HTRF=homogeneous time-resolved fluorescence].
# The specific signal is inversely proportional to the cAMP concentration of the samples employed.
# The 665 nm/620 nm fluorescence ratio was evaluated.
# Materials used: 96-well plates for the tissue culture, 96-well plates with black edge and black base (e.g. Fluotrac 600 from Greiner), 96-well plates for the substance dilutions of polypropylene and cAMP Femtomolar (4000 wells Kit, CIS Bio International # 62AM5PEJ).
# Reagent used: BSA (bovine serum albumin) Fraction V protease-free, IBMX (3-isobutyl-1-methylxanthine), hFSH (human follicle stimulating hormone), Triton X-100 analytical grade, potassium fluoride analytical grade, G 418 (Geneticin) and Accutase.
# Buffer 1 (washing and testing buffer) contained PBS, 1 mM CaCl2, 1 mM MgCl2, 0.2% glucose; 0.1% BSA, 1 mM IBMX.
# Buffer 2 (2× lysis buffer) contained 1% Triton X-100 in PBS (without CaCl2 and MgCl2).
# Buffer 3 (assay buffer) contained 50 mM potassium phosphate buffer (pH 7.0); 800 mM potassium fluoride; 0.2% BSA (always added fresh).
# On day 1, the cells were seeded in 96-well plates (3×10^4 cells per well hFSHR clone 16 cells (CHO cells stably transfected with the human FSH receptor in 150 μl of medium). The next day, test substance dilutions were made up. For this purpose, all the substances were diluted in ice-cold buffer 1 (with or without hFSH), and the substance dilutions were placed on ice until applied to the cells. The cell supernatant was then aspirated off, and the cells were washed 2× with 200 μl of buffer 1. The cells were treated with 60 μl of the appropriate substance concentrations at 37° C. for 2 h. The cells were then lysed with 60 μl of buffer 2 (put onto the supernatant) (on a plate shaker at RT for 30 min). The test conjugates (cAMP-D2 and anti-cAMP cryptate, CIS Bio) were diluted in buffer 3 in accordance with the manufacturers' information. The actual mixture for measurement was pipetted into a black 96-well plate (in each case 15 μl of the cell lysate diluted with 35 μl of buffer 1; firstly 25 μl of cAMP-D2 conjugate were pipetted and, after 10 min, 25 μl of the anti-cAMP cryptate were added). This is followed by incubation at RT for 90 minutes. The measurement was carried out in a PheraStar (BMG).
# Dose-effect curve (hFSH) for the human receptor: 1e-8, 3e-9, 1e-9, 3e-10, 1e-10, 3e-11, 1e-11, 3e-12 mol/l.
# The test substances were employed in suitable dilutions in the absence (test for agonism) and in the presence of 1e-9 mol/l hFSH.
# The values of the well ratio were averaged and then entered directly in SigmaPlot versus the concentrations. The maximum and minimum values were determined for each plate, and half the difference is to be regarded as IC50.
row,Structure (SMILES),IC50 [nM]
1,"COc1ccc(C#Cc2ccc(OC(C)C)c(C(=O)N[C@@H](CO)Cc3c[nH]c4ccccc34)c2)cc1F [Example 30, 5-(3-Fluoro-4-methoxy-phenylethynyl)-N-[(R)-2-hydroxy-1-(1H-indol-3-ylmethyl)-ethyl]-2-isopropoxy-benzamide]",150
2,"Cc1ccc(C#Cc2ccc(OC(C)C)c(C(=O)N[C@@H](CO)Cc3c[nH]c4ccccc34)c2)nc1 [Example 94, N-[(R)-1-Hydroxymethyl-2-(1H-indol-3-yl)-ethyl]-2-isopropoxy-5-(5-methyl-pyridin-2-ylethynyl)-benzamide]",80
3,"CC(C)Oc1ccc(C#Cc2cccc(CN3CCNCC3)c2)cc1C(=O)N[C@@H](CO)Cc1c[nH]c2ccccc12 [Example 141, N-[(R)-1-Hydroxymethyl-2-(1H-indol-3-yl)-ethyl]-2-isopropoxy-5-(3-piperazin-1-ylmethyl-phenylethynyl)-benzamide]",2000
4,"CC(C)Oc1ccc(C#Cc2ccc3ccccc3c2)cc1C(=O)N[C@@H](CO)Cc1c[nH]c2ccccc12 [Example 52, N-[(R)-1-Hydroxymethyl-2-(1H-indol-3-yl)-ethyl]-2-isopropoxy-5-naphthalen-2-ylethynyl-benzamide]",80
5,"CC(C)Oc1ccc(C#Cc2ccc(C(=O)O)o2)cc1C(=O)N[C@@H](CO)Cc1c[nH]c2ccccc12 [Example 88, 5-{3-[(R)-1-Hydroxymethyl-2-(1H-indol-3-yl)-ethylcarbamoyl]-4-isopropoxy-phenylethynyl}-furan-2-carboxylic acid]",60
6,"CC(C)Oc1ccc(C#Cc2ccc(-c3ccccc3)cc2)cc1C(=O)N[C@@H](CO)Cc1c[nH]c2ccccc12 [Example 111, 5-Biphenyl-4-ylethynyl-N-[(R)-1-hydroxymethyl-2-(1H-indol-3-yl)-ethyl]-2-isopropoxy-benzamide]",2000
7,"CNC(=O)c1cccc(C#Cc2ccc(Cl)c(C(=O)N[C@@H](CO)Cc3c[nH]c4ccccc34)c2)c1 [Example 79, 2-Chloro-N-[(R)-2-hydroxy-1-(1H-indol-3-ylmethyl)-ethyl]-5-(3-methylcarbamoyl-phenylethynyl)-benzamide]",3500
8,"CC(C)Oc1ccc(C#Cc2ccc(N3CCNC3=O)cc2)cc1C(=O)N[C@@H](CO)Cc1c[nH]c2ccccc12 [Example 146, N-[(R)-1-Hydroxymethyl-2-(1H-indol-3-yl)-ethyl]-2-isopropoxy-5-[4-(2-oxo-imidazolidin-1-yl)-phenylethynyl]-benzamide]",70
9,"CC(C)Oc1ccc(C#Cc2ccc(OCCN(C)C)cc2)cc1C(=O)N[C@@H](CO)Cc1c[nH]c2ccccc12 [Example 103, 5-[4-(2-Dimethylamino-ethoxy)-phenylethynyl]-N-[(R)-1-hydroxymethyl-2-(1H-indol-3-yl)-ethyl]-2-isopropoxy-benzamide]",1300
10,"CC(C)Oc1ccc(C#Cc2cncnc2)cc1C(=O)N[C@@H](CO)Cc1c[nH]c2ccccc12 [Example 46, N-[(R)-1-Hydroxymethyl-2-(1H-indol-3-yl)-ethyl]-2-isopropoxy-5-pyrimidin-5-ylethynyl-benzamide]",150
11,"Cc1cc(C)cc(C#Cc2ccc(OC(C)C)c(C(=O)N[C@@H](CO)Cc3c[nH]c4ccccc34)c2)c1 [Example 40, 5-(3,5-Dimethyl-phenylethynyl)-N-[(R)-1-hydroxymethyl-2-(1H-indol-3-yl)-ethyl]-2-isopropoxy-benzamide]",500
12,"CC(C)Oc1ccc(C#Cc2ccsc2)cc1C(=O)N[C@@H](CO)Cc1c[nH]c2ccccc12 [Example 100, N-[(R)-2-Hydroxy-1-(1H-indol-3-ylmethyl)-ethyl]-2-isopropoxy-5-thiophen-3-ylethynyl-benzamide]",70
13,"CNC(=O)c1ccc(C#Cc2cccc(C(=O)N[C@@H](CO)Cc3c[nH]c4ccccc34)c2)cc1 [Example 72, N-[(R)-1-Hydroxymethyl-2-(1H-indol-3-yl)-ethyl]-5-(4-methylcarbamoyl-phenylethynyl)-benzamide]",2500

# These reach a lower IC50. Values come first.
row,IC50 [nM],Structure (SMILES)
1,15,"CC(C)Oc1ccc(C#Cc2ccc3c(c2)C(=O)NC3)cc1C(=O)N[C@@H](CO)Cc1c[nH]c2ccccc12 [Example 155, N-[(R)-1-Hydroxymethyl-2-(1H-indol-3-yl)-ethyl]-2-isopropoxy-5-(3-oxo-2,3-dihydro-1H-isoindol-5-ylethynyl)-benzamide]"
2,35,"CC(C)Oc1ccc(C#Cc2ccc(C(=O)NCCN3CCNC(=O)C3)cc2)cc1C(=O)N[C@@H](CO)Cc1c[nH]c2ccccc12 [Example 173, N-[(R)-1-Hydroxymethyl-2-(1H-indol-3-yl)-ethyl]-2-isopropoxy-5-{4-[2-(3-oxo-piperazin-1-yl)-ethylcarbamoyl]-phenylethynyl}-benzamide]"
3,20,"CC(C)Oc1ccc(C#Cc2ccc(C(=O)NCCC(N)=O)cc2)cc1C(=O)N[C@@H](CO)Cc1c[nH]c2ccccc12 [Example 177, 5-[4-(2-Carbamoyl-ethylcarbamoyl)-phenylethynyl]-N-[(R)-1-hydroxymethyl-2-(1H-indol-3-yl)-ethyl]-2-isopropoxy-benzamide]"
4,30,"Cc1ccc(C)c(C#Cc2ccc(OC(C)C)c(C(=O)N[C@@H](CO)Cc3c[nH]c4ccccc34)c2)c1 [Example 48, 5-(2,5-Dimethyl-phenylethynyl)-N-[(R)-1-hydroxymethyl-2-(1H-indol-3-yl)-ethyl]-2-isopropoxy-benzamide]"
5,30,"CC(C)Oc1ccc(C#Cc2cccc(-c3nnn[nH]3)c2)cc1C(=O)N[C@@H](CO)Cc1c[nH]c2ccccc12 [Example 148, N-[(R)-2-Hydroxy-1-(1H-indol-3-ylmethyl)-ethyl]-2-isopropoxy-5-[3-(1H-tetrazol-5-yl)-phenylethynyl]-benzamide]"
6,25,"CC(C)Oc1ccc(C#Cc2ccc3[nH]ncc3c2)cc1C(=O)N[C@@H](CO)Cc1c[nH]c2ccccc12 [Example 113, N-[(R)-2-Hydroxy-1-(1H-indol-3-ylmethyl)-ethyl]-5-(1H-indazol-5-ylethynyl)-2-isopropoxy-benzamide]"
7,15,"COC(=O)CCNC(=O)c1cccc(C#Cc2ccc(OC(C)C)c(C(=O)N[C@@H](CO)Cc3c[nH]c4ccccc34)c2)c1 [Example 165, 3-(3-{3-[(R)-1-Hydroxymethyl-2-(1H-indol-3-yl)-ethylcarbamoyl]-4-isopropoxy-phenylethynyl}-benzoylamino)-propionic acid methyl ester]"
8,45,"CNC(=O)CCCc1ccc(C#Cc2ccc(OC(C)C)c(C(=O)N[C@@H](CO)Cc3c[nH]c4ccccc34)c2)cc1 [Example 70, N-[(R)-1-Hydroxymethyl-2-(1H-indol-3-yl)-ethyl]-2-isopropoxy-5-[4-(3-methylcarbamoyl-propyl)-phenylethynyl]-benzamide]"
9,23,"CC(C)Oc1ccc(C#Cc2cccc(C(=O)NCCS(N)(=O)=O)c2)cc1C(=O)N[C@@H](CO)Cc1c[nH]c2ccccc12 [Example 167, N-[(R)-1-Hydroxymethyl-2-(1H-indol-3-yl)-ethyl]-2-isopropoxy-5-[3-(2-sulfamoyl-ethylcarbamoyl)-phenylethynyl]-benzamide]"
